Where only a bound is given, the exact number is not on record here.

Common to all, as to type: in vivo
Test [1] concerns Aphis gossypii. In words: Cotton aphid (Aphis gossypii, mixed life stages), method b: electrostatic spray. Particulars: 120 h, sprayed, after 5 days, read-out: mortality in comparison with untreated controls. Here is the method:
II.1 Cotton Aphid (Aphis gossypii, Mixed Life Stages)
(§1) The active compounds were formulated in cyclohexanone as a 10,0000 ppm solution supplied in 1.3 ml ABgene® tubes. These tubes were inserted into an automated electrostatic sprayer equipped with an atomizing nozzle and they served as stock solutions for which lower dilutions were made in 50% acetone:50% water (v/v). A nonionic surfactant (Kinetic®) was included in the solution at a volume of 0.01% (v/v).
Cotton plants at the cotyledon stage were infested with aphids prior to treatment by placing a heavily infested leaf from the main aphid colony on top of each cotyledon. Aphids were allowed to transfer overnight to accomplish an infestation of 80-100 aphids per plant and the host leaf was removed. The infested plants were then sprayed by an automated electrostatic plant sprayer equipped with an atomizing spray nozzle. The plants were dried in the sprayer fume hood, removed from the sprayer, and then maintained in a growth room under fluorescent lighting in a 24 hr photoperiod at 25° C. and 20-40% relative humidity. Aphid mortality on the treated plants, relative to mortality on untreated control plants, was determined after 5 days.

Test [2] concerns Myzus persicae. Briefly: Green peach aphid (Myzus persicae, mixed life stages), method b: electrostatic spray on bell pepper. Particulars: 120 h, sprayed, after 5 days, read-out: mortality in comparison with untreated controls. Here is the method: II.2 Green Peach Aphid (Myzus persicae, Mixed Life Stages)
as §1
Bell pepper plants at the first true-leaf stage were infested prior to treatment by placing heavily infested leaves from the main colony on top of the treatment plants. Aphids were allowed to transfer overnight to accomplish an infestation of 30-50 aphids per plant and the host leaves were removed. The infested plants were then sprayed by an automated electrostatic plant sprayer equipped with an atomizing spray nozzle. The plants were dried in the sprayer fume hood, removed, and then maintained in a growth room under fluorescent lighting in a 24-hr photoperiod at 25° C. and 20-40% relative humidity. Aphid mortality on the treated plants, relative to mortality on untreated control plants, was determined after 5 days.

For test [3], the system named is Aphis craccivora. Briefly: Cowpea aphid (Aphis craccivora), spray on potted cowpea plants. To be noted: sprayed, population reduction assessed after 24, 72 and 120 hours, read-out: mortality in comparison with untreated controls. Here is the method: II.3 Cowpea Aphid (Aphis craccivora)
The active compounds were formulated in 50:50 (vol:vol) acetone:water. The test solution was prepared at the day of use.
Potted cowpea plants colonized with 100-150 aphids of various stages were sprayed after the pest population had been recorded. Population reduction was assesed after 24, 72, and 120 hours.

The test system of test [4] is Megoura viciae. Briefly: Vetch aphid (Megoura viciae), bean leaf disks in microtiterplates. To be noted: foliar, 144 h, test solution 2500 mg/L, leaf disks sprayed with 2.5 μl, 6 days. Here is the method:
II.5 Vetch Aphid (Megoura viciae)
The active compounds were formulated in 1:3 (vol:vol) DMSO:water with different concentrations of formulated compounds.
Bean leaf disks were placed into microtiterplates filled with 0.8% agar-agar and 2.5 ppm OPUS™. The leaf disks were sprayed with 2.5 μl of the test solution and 5 to 8 adult aphids were placed into the microtiterplates which were then closed and kept at 23±1° C. and 50±5% relative humidity under fluorescent light for 6 days. Mortality was assessed on the basis of vital, reproduced aphids. Aphid mortality and fecundity was then visually assessed.

Test [5] has as its system Anthonomus grandis. In words: Boll weevil (Anthonomus grandis), eggs on insect diet in microtiter plates. Particulars: 120 h, test solution 2500 mg/L, 20 μl sprayed onto diet, 5 days, read-out: mortality (egg and larval). Here is the method: II.6 Boll Weevil (Anthonomus grandis)
The compounds were formulated in 75:25 (vol:vol) water:DMSO.
For evaluating control of boll weevil (Anthonomus grandis) the test unit consisted of 24-well-microtiter plates containing an insect diet and 20-30 A. grandis eggs. Different concentrations of formulated compounds were sprayed onto the insect diet at 20 μl, using a custom built micro atomizer, at two replications. After application, the microtiter plates were incubated at 23±1° C. and 50±5% relative humidity for 5 days. Egg and larval mortality was then visually assessed.

Test [6] relates to Myzus persicae. Briefly: Green peach aphid (Myzus persicae) through systemic means, artificial diet under membrane. To be noted: 72 h, pipetted into aphid diet, 3 days, read-out: mortality in comparison with untreated controls. An excerpt: II.9 Activity Against Green Peach Aphid (Myzus persicae)
For evaluating control of green peach aphid (Myzus persicae) through systemic means the test unit consisted of 96-well-microtiter plates containing liquid artificial diet under an artificial membrane.
The compounds were formulated using a solution containing 75% v/v water and 25% v/v DMSO. Different concentrations of formulated compounds were pipetted into the aphid diet, using a custom built pipetter, at two replications. After application, 5 to 8 adult aphids were placed on the artificial membrane inside the microtiter plate wells The aphids were then allowed to suck on the treated aphid diet and incubated at about 23+1° C. and about 50+5% relative humidity for 3 days. Aphid mortality and fecundity was then visually assessed.

Test [7] concerns Dichromothrips Corbetti. Briefly: Vanda/orchid thrips (Dichromothrips corbetti), dipped orchid petals. To be noted: after 72 hours, read-out: mortality in comparison with untreated controls. Here is the method: II.11 Activity Against Vanda/Orchid Thrips (Dichromothrips Corbetti)
The active compounds were formulated as a 50:50 (vol:vol) acetone:water solution. Surfactant (Alkamuls EL 620) was added at the rate of 0.1% (vol/vol). Vanda orchids petals were cleaned, washed and air dried prior to spraying. Petals were dipped into the test solution for 3 seconds, air dried, placed inside a resealable plastic and inoculated with 20 adults. The treated petals were kept inside the holding room at 28-29° C. and relative humidity of 50-60%. Percent mortality was recorded after 72 hours.

Turning to `Cc1c(C(=O)Nc2ccnnc2)cnn1CC(F)(F)F` [Compound 1, 5-Methyl-1-(2,2,2-trifluoroethyl)-1H-pyrazole-4-carboxylic acid pyridazin-4-ylamide], the mortality at 300 ppm is at least 75% in test [1], at least 75% in test [2] and at least 90% in test [3]. The values for the mortality at 2500 µg/mL in test [4] and in test [5] were at least 90% and at least 50%, respectively. Besides, the mortality at 2500 ppm in test [6] amounted to 100%. The mortality at 500 ppm in test [7] is at least 50%.
